Our source for the IC50 values is US8906946B2, “TRPM8 receptor antagonists” (Dompe' S.p.A., priority 2011, dated 2014).

The IC50 is the concentration that gives 50% inhibition.

T1 sequence (Q7Z2W7 whole entry): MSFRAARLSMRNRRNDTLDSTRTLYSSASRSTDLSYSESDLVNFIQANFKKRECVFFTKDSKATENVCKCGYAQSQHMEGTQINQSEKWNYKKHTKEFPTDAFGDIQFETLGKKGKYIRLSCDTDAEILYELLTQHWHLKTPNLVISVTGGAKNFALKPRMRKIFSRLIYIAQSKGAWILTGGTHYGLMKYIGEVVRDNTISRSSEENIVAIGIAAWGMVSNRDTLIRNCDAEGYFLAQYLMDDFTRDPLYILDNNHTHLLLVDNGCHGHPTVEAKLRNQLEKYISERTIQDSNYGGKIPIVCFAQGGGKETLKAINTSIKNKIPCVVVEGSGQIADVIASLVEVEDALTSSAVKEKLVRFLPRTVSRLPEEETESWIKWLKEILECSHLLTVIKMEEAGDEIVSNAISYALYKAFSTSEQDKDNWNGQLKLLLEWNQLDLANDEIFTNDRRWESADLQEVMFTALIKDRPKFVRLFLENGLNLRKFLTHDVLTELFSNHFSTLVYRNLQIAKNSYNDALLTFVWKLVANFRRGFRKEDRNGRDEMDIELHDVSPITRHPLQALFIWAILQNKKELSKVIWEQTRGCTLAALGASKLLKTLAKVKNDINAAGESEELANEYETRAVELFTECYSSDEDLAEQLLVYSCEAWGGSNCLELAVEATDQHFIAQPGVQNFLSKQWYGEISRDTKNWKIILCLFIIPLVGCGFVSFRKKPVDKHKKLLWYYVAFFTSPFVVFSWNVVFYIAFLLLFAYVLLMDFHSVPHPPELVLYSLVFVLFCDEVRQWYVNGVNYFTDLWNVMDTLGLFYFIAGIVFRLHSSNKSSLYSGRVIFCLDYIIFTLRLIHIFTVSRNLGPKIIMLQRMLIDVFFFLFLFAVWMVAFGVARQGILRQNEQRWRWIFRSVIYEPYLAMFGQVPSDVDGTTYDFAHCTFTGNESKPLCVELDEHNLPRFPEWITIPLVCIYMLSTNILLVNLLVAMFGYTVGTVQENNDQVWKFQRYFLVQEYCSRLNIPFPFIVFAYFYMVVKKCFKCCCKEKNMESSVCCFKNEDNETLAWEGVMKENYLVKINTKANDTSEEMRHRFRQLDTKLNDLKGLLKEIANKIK

For the first test, the target named is T1, human TRPM8 (Homo sapiens, UniProt Q7Z2W7). Nature of the test: High-throughput FLIPR TETRA calcium fluorescence assay for TRPM8 antagonists in HEK293/hTRPM8 cells. It is filed as cell-based. The arrangement: expressed in transfected cells. To be noted: agonist Cooling Agent 10 at EC80, Ca2+ fluorescence. From the text:
A functional cell-based assay for the identification of TRPM8 receptor antagonists, optimised to allow high throughput screening at FLIPR^TETRA, was developed in HEK293 cells by stable pure clone selection and functional characterization with a fluorescent calcium sensitive dye.
TRPM8 was cloned into the multiple clonig site of pcDNA3 mammalian expression vector; the obtained construct pcDNA3/hTRPM8 was fully sequence verified and used for the transfection of HEK293 cell line. HEK293 cells stably transfected with TRPM8 gene were maintained in Minimum essential medium. The cells were transfected with the pcDNA3/hTRPM8 vector by electroporation and then selected with medium containing 0.8 mg/ml G418 for 10-15 days.
The following commercial compounds were used as ligands: • Activator: Cooling Agent 10 (Takasago CAS N. 87061-04-9) • Blocker: Capsazepine (SIGMA cat #D—5879)
The experimental activities were performed using FLIPR^TETRA instruments.
HEK293 cells stably transfected with TRPM8 gene were maintained in Minimum essential medium.
The TRPM8 cell line was analysed for the response to a library of compounds using a Ca^2+ mobilization-dependent fluorescence signal in 384 wells microtiter plate format. The analysis was performed using the FLIPR^TETRA (MDC) with the ICCD Camera.
The execution of the assay involved the use of three microtiter plates:
1. Assay plate, containing cells loaded with dye and prepared as follows:
Cells were seeded at 15000 c/well in Poly-D-Lysine coated 384 wells Microtiter Plates in complete medium (25 μl/well).
24 h after seeding, the cell plates were washed with Tyrode assay buffer by the Microplate Washer and 10 μL of Tyrode assay buffer was left in each well.
Cells were then loaded with 10 μL/well of the Fluo-4 NW dye solution by CyBi®-Well pipettor. Each bottle of Fluo4-NW dye (Molecular Probes cat. #F36206, component A) was re-suspended in 8 mL of Tyrode assay buffer and supplemented with 100 μL of water-soluble probenecid (MolecularProbes cat.#F36206, component B).
Dye loaded cell plates were incubated for 1 h at room temperature.
2. Compound Dilution Plate (FIG. 1), containing diluted test compounds, formulated as follows: • Column 1: wells containing Assay Buffer plus DMSO 0.5% final • Column 2: wells alternating Max Signal Control in first injection (Maximum Response: Cooling Agent 10 at EC100, 100 μM) and Min Signal Control in first injection (Assay buffer plus 0.5% DMSO final); • Columns 3-22: wells containing Assay Buffer plus 0.5% DMSO final. To these wells the compounds to be tested were added at 3× concentration. • Column 23: alternating wells of Max Signal Control in second injection (Assay buffer) and Min Signal Control in second injection (Antagonist Capsazepine IC100, 50 μM) in Assay buffer plus 0.5% DMSO final; • Column 24: wells containing Capsazepine (Antagonist) at 8 concentrations in duplicate at final concentrations of […] in Assay buffer plus 0.5% DMSO final.
3. Activator Plate (FIG. 2), containing agonist Cooling Agent 10 at EC80, formulated as follows: • Column 1: Cooling Agent 10 (Agonist) at 8 concentrations dose response in duplicate at final concentrations of […] in Assay buffer; • Columns 2-24: Cooling Agent 10 (Agonist) at EC80 (3 fold concentrated, 20 μM final) in Assay buffer.
The test was carried out according to a procedure comprising the following steps: • 1. The samples contained in the wells of the Compound Plate were added to the corresponding wells of the Assay Plate by the FLIPR^TETRA, thus resulting in the addition in Columns 3-22 of the test compounds at 3× concentration to the cells of the assay plates. No mixing was performed in the assay wells and the signal of the emitted fluorescence was recorded for 300 seconds. • 2.
Turning to `Clc1c(OCCNCc2cccs2)ccc2ccccc12` [Compound 5, 2-[(1-chloronaphthalen-2-yl)oxy]-N-(thiophen-2-ylmethyl)ethanaminium], the IC50 was < 10 µM.

For the compound `Clc1c(OCCNCc2ccccn2)ccc2ccccc12` [Compound 6, 2-[(1-chloronaphthalen-2-yl)oxy]-N-(pyridin-2-ylmethyl)ethanaminium], the IC50 was < 10 µM. Same read-out and setting: to `CC(C)(COc1ccc2ccccc2c1Cl)NCc1ccco1` [Compound 8, 1-[(1-chloronaphthalen-2-yl)oxy]-N-(furan-2-ylmethyl)-2-methylpropan-2-amine] belongs < 10 µM; to `CC(C)(COc1ccc2ccccc2c1Cl)NCc1ccccn1` [Compound 13, 1-[(1-chloronaphthalen-2-yl)oxy]-2-methyl-N-(pyridin-2-ylmethyl)propan-2-amine], < 10 µM. On the same count and under the same terms, to `Cn1cccc1CNC(C)(C)COc1ccc2ccccc2c1Cl` [Compound 14, 1-[(1-chloronaphthalen-2-yl)oxy]-2-methyl-N-[(1-methyl-1H-pyrrol-2-yl)methyl]propan-2-amine] belongs < 10 µM; to `O=S(=O)(CCNCc1ccco1)c1ccc2ccccc2c1Cl` [Compound 25, 2-[(1-chloronaphthalen-2-yl)sulfonyl]-N-(furan-2-ylmethyl)ethanamine], < 10 µM; to `Clc1c(CCCNCc2ccco2)ccc2ccccc12` [Compound 32, 3-(1-chloronaphthalen-2-yl)-N-(furan-2-ylmethyl)propan-1-amine], < 10 µM. The same measure, in the same setting: the result for `Cc1ccc(CNCCCc2ccc3ccccc3c2Cl)o1` [Compound 33, 3-(1-chloronaphthalen-2-yl)-N-[(5-methylfuran-2-yl)methyl]propan-1-amine] reads < 10 µM. Consider `Clc1ccc(CNCCCc2ccc3ccccc3c2Cl)o1` [Compound 34, N-[(5-chlorofuran-2-yl)methyl]-3-(1-chloronaphthalen-2-yl)propan-1-amine], for which the concentration for half-maximal inhibition (IC50) was < 10 µM. Still for that read-out and setting: the result for `Clc1ccc(CNCCCc2ccc3ccccc3c2Cl)s1` [Compound 35, 3-(1-chloronaphthalen-2-yl)-N-[(5-chlorothiophen-2-yl)methyl]propan-1-amine] reads < 10 µM; that for `Fc1c(OCCNCc2ccco2)ccc2ccccc12` [Compound 48, 2-[(1-fluoronaphthalen-2-yl)oxy]-N-(furan-2-ylmethyl)ethanamine], < 10 µM.

In the case of `Fc1c(OCCNCc2cccs2)ccc2ccccc12` [Compound 52, 2-[(1-fluoronaphthalen-2-yl)oxy]-N-(thiophen-2-ylmethyl)ethanamine], the IC50 was < 10 µM. Same read-out and setting: to `Fc1c(OCCNCc2ccccn2)ccc2ccccc12` [Compound 53, 2-[(1-fluoronaphthalen-2-yl)oxy]-N-(pyridin-2-ylmethyl)ethanamine] belongs < 10 µM; to `N#Cc1ccc2c(Cl)c(OCCNCc3ccccn3)ccc2c1` [Compound 55, 5-chloro-6-{2-[(pyridin-2-ylmethyl)amino]ethoxy}naphthalene-2-carbonitrile], < 10 µM; to `N#Cc1ccc2c(Cl)c(OCCNCc3cccs3)ccc2c1` [Compound 60, 5-chloro-6-{2-[(thiophen-2-ylmethyl)amino]ethoxy}naphthalene-2-carbonitrile], < 10 µM.

The next test concerns the target T1, human TRPM8. Nature of the test: FLIPR384 capsazepine antagonist activity on menthol agonist response in selected TRPM8 clone. It is filed as cell-based. Also noted: expressed in transfected cells. The settings on record: FLIPR384, antagonist from 100 nM to 316 μM. As to the method: The experimental activities were performed using FLIPR instruments.
Patch clamp recordings were also obtained in voltage-clamp configuration on HEK/TRPM8 clones in order to verify the receptor pharmacology and to determine the agonist dose-response curve and EC50 value. HEK293 cells were […] having 1.5-2.5 MΩ resistance were used to record currents following drug application. […] No menthol-induced currents were recorded in non transfected HEK293 cells.
For `Oc1cc2c(cc1O)CN(C(=S)NCCc1ccc(Cl)cc1)CCC2` [capsazepine, Capsazepine], the concentration for half-maximal inhibition (IC50) came to 20 µM.
